# Experimental data published in patent publication US20120064125A1 (priority 2009, published 2012).
# Assays:
# Assay type in all cases: cell-based, Staphylococcus aureus
# USA300 strain LAC = details: 48 hr titanium biofilm, AIP ~50 nM for 24 hr, effluent cells tested with rifampicin and levofloxacin
# Experimental: In parallel, biomass was detached (white triangles, dashed-line error bars) from the coupons with AIP-I addition and collected from flow cell effluents. The detached biomass was treated with identical rifampicin/levofloxacin concentrations and surviving CFU's determined.
# Antibiotic susceptibility. […] To determine antibiotic resistance of dispersed biofilms, AIP was added (˜50 nM) to the media reservoir after 48 hr growth, and the biofilm effluent was collected on ice for 24 hr. Cell concentration was adjusted to the equivalent of one coupon of biomass, or ˜1×10^8 CFU. Cells were treated as described above with the exception that cells were pelleted by centrifugation at 13,000 RPM and then resuspended in 1 mL PBS before sonication.
# To test antibiotic susceptibility of dispersed cells, LAC biofilms were grown for 48 hr on titanium, exposed to AIP (˜50 nM) for 24 hr, and detached cells were collected from the effluent.
# [1] = tested on: USA300 strain LAC biofilm; assay: USA300 biofilm dispersal from a titanium surface (flow cell, CLSM); details: AIP-I ~50 nM
# Experimental: FIGS. 6A-B. USA300 biofilm dispersal from a titanium surface. Biofilms of LAC with plasmid pCM12 were grown for two days in the modified flow cell chamber (FIG. 2) that contains titanium as a substratum. AIP-I was added to the flow cell media at ˜50 nM final concentration, and biofilm integrity was monitored for another 20 hr. Each image depiction is a reconstruction of a z series of CLSM images, and each side of a grid square is 20 μm. (FIG. 6A) Wild-type LAC with pCM12. (FIG. 6B) LAC ΔAgr::Tet mutant with pCM12.
# Biofilm Assays. For biofilms grown on glass, flow cell biofilm growth, confocal scanning laser microscopy (CSLM), and computer image analysis were performed as previously described (Boles and Horswill, 2008). To monitor biofilm growth, LAC was transformed with GFP-expressing plasmid pALC2084 (Bateman et al., 2001), and the growth medium was supplemented with 1 μg/ml Cam and 20 ng/ml anhydrotetracycline for plasmid maintenance and induction of GFP expression. […] For biofilm dispersal tests, AIP type I (AIP-I) was synthesized and quantified using an intein system (Malone et al., 2007), and biofilm dispersal tests were performed as previously described (Boles and Horswill, 2008). […] LAC biofilm integrity was monitored at 6 hr and 22 hr, and COMSTAT analysis was performed to quantify the biofilm properties. […]
# [2] = tested on: USA300 strain LAC biofilm; assay: USA300 biofilm dispersal from a glass surface (flow cell, CLSM); details: AIP-I ~50 nM
# Experimental: FIGS. 1A-B. USA300 biofilm dispersal from a glass surface. USA300 strain LAC with plasmid pALC2084 was inoculated into a once-through flow cell with a glass substratum and incubated for two days. AIP-I (˜50 nM) was added to the flow cell media and biofilm integrity was monitored for 20 hr. For each image depiction, a z series of images was obtained with CLSM and reconstructed with Volocity software, and each side of a grid square is 20 μm in the image reconstruction. (FIG. 1A) Wild-type LAC with pALC2084. (FIG. 1B) LAC ΔAgr:Tet mutant with pALC2084.
# Biofilm Assays. […] For biofilm dispersal tests, AIP type I (AIP-I) was synthesized and quantified using an intein system (Malone et al., 2007), and biofilm dispersal tests were performed as previously described (Boles and Horswill, 2008). […] LAC biofilm integrity was monitored at 6 hr and 22 hr, and COMSTAT analysis was performed to quantify the biofilm properties.
# USA300 has a functional biofilm dispersal pathway. […] Biofilm integrity was monitored using confocal laser scanning microscopy (CLSM), and as anticipated, the LAC biofilm appeared as a confluent layer ˜20 μm thick (FIG. 1A). […] In scanning the glass substratum, remaining live cells could not be detected, indicating the biomass completely dispersed from the surface.
# [3] = LAC ΔAgr::Tet mutant (Agr inactivated), 20 hr
sequence,measurement,setting,value
"YSTCDFIM (thiolactone bridge; Synechocystis PCC6803) [AIP-I, made with an intein system]",antibiotic susceptibility of cells after AIP-mediated dispersal,USA300 strain LAC,significantly more antibiotic susceptible
same,biofilm response to AIP-I,[1]; [3],did not respond to AIP-I treatment
same,biofilm dispersal (biomass),"[1]; wild-type LAC, two day biofilm, 20 hr post addition",complete dispersal of the biomass
same,biofilm integrity after signal addition,[2]; [3],no effect on the biofilm integrity
same,biofilm integrity (biomass) after signal addition,"[2]; wild-type LAC, 48 hr biofilm, 20 hr after addition",complete loss of biomass
